Reference: PubChem BioAssay (NCI)
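Cells were grown in 96-well plates and exposed to each compound for 48 hours at five concentrations; endpoints were interpolated linearly between bracketing concentrations, or set to the highest concentration if not reached. GI50 marks 50% less growth. At the TGI there is no net growth.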

Legend:
Assay in all cases: NCI anticancer screen, dose series, 48 h
TK-10 renal = tested on: TK-10 renal
EKVX NSCLC = tested on: EKVX NSCLC
IGROV1 ovarian = tested on: IGROV1 ovarian
MALME-3M melanoma = tested on: MALME-3M melanoma
UO-31 renal = tested on: UO-31 renal
K-562 leukemia = tested on: K-562 leukemia
KM12 colon = tested on: KM12 colon
SK-MEL-5 melanoma = tested on: SK-MEL-5 melanoma
SK-OV-3 ovarian = tested on: SK-OV-3 ovarian
SK-MEL-28 melanoma = tested on: SK-MEL-28 melanoma

CC(C)Oc1ccc(C(=O)N[C@H](CNC(=O)CN(C)C)Cc2ccc(-c3cn4cccc([C@H](C)O)c4n3)cc2)cc1Cl
GI50 (TK-10 renal): 11.8 µM | TGI (TK-10 renal): 24.6 µM | GI50 (EKVX NSCLC): 0.0547 µM | TGI (EKVX NSCLC): 21.6 µM | GI50 (IGROV1 ovarian): 11.1 µM | TGI (IGROV1 ovarian): 31 µM | GI50 (MALME-3M melanoma): 0.078 µM | TGI (MALME-3M melanoma): 16.3 µM | GI50 (UO-31 renal): 2.56 µM | TGI (UO-31 renal): 19.1 µM | GI50 (K-562 leukemia): 0.0375 µM | TGI (K-562 leukemia): 14.7 µM | GI50 (KM12 colon): 0.0381 µM | TGI (KM12 colon): 18 µM | GI50 (SK-MEL-5 melanoma): 0.33 µM | TGI (SK-MEL-5 melanoma): 2.82 µM | GI50 (SK-OV-3 ovarian): 0.0694 µM | TGI (SK-OV-3 ovarian): 22.9 µM | GI50 (SK-MEL-28 melanoma): 4 µM | TGI (SK-MEL-28 melanoma): 20.3 µM

C[C@]12CC[C@H]3[C@@H](C[C@@H]4N=C(c5ccc(O)cc5)S[C@@]45C[C@H](O)CC[C@]35C)[C@@H]1CC[C@@H]2O
GI50 (TK-10 renal): > 100 µM | TGI (TK-10 renal): > 100 µM | GI50 (EKVX NSCLC): 7.29 µM | TGI (EKVX NSCLC): > 100 µM | GI50 (IGROV1 ovarian): 11.1 µM | TGI (IGROV1 ovarian): > 100 µM | GI50 (MALME-3M melanoma): 3.76 µM | TGI (MALME-3M melanoma): > 100 µM | GI50 (UO-31 renal): 2.48 µM | TGI (UO-31 renal): 20.4 µM | GI50 (K-562 leukemia): 3.48 µM | TGI (K-562 leukemia): > 100 µM | GI50 (KM12 colon): 7.24 µM | TGI (KM12 colon): > 100 µM | GI50 (SK-MEL-5 melanoma): 3.15 µM | TGI (SK-MEL-5 melanoma): 13.1 µM | GI50 (SK-OV-3 ovarian): 19 µM | TGI (SK-OV-3 ovarian): > 100 µM | GI50 (SK-MEL-28 melanoma): 3.05 µM | TGI (SK-MEL-28 melanoma): 66 µM

O=C(Nc1ccc(Br)cc1F)c1cc(Br)ccc1O
GI50 (TK-10 renal): 3.12 µM | TGI (TK-10 renal): 12.3 µM | GI50 (EKVX NSCLC): 1.03 µM | TGI (EKVX NSCLC): 11.7 µM | GI50 (IGROV1 ovarian): 0.4 µM | TGI (IGROV1 ovarian): 15.3 µM | GI50 (MALME-3M melanoma): 0.32 µM | TGI (MALME-3M melanoma): 1.82 µM | GI50 (UO-31 renal): 0.4 µM | TGI (UO-31 renal): 2.8 µM | GI50 (K-562 leukemia): 0.453 µM | TGI (K-562 leukemia): > 35.9 µM | GI50 (KM12 colon): 1.93 µM | TGI (KM12 colon): 5.66 µM | GI50 (SK-MEL-5 melanoma): 0.289 µM | TGI (SK-MEL-5 melanoma): 1.19 µM | GI50 (SK-OV-3 ovarian): 1.62 µM | TGI (SK-OV-3 ovarian): 8.12 µM | GI50 (SK-MEL-28 melanoma): 0.4 µM | TGI (SK-MEL-28 melanoma): 2.13 µM

Cc1ccccc1/C=C1\CN(C(=O)OC(C)(C)C)C/C(=C\c2ccccc2C)C1=O
GI50 (TK-10 renal): 3.65 µM | TGI (TK-10 renal): 15 µM | GI50 (EKVX NSCLC): 2.34 µM | TGI (EKVX NSCLC): 6.88 µM | GI50 (IGROV1 ovarian): 2.26 µM | TGI (IGROV1 ovarian): 6.26 µM | GI50 (MALME-3M melanoma): 1.81 µM | TGI (MALME-3M melanoma): 3.6 µM | GI50 (UO-31 renal): 1.63 µM | TGI (UO-31 renal): 3.09 µM | GI50 (K-562 leukemia): 2.86 µM | TGI (K-562 leukemia): > 100 µM | GI50 (KM12 colon): 2.03 µM | TGI (KM12 colon): 4.68 µM | GI50 (SK-MEL-5 melanoma): 2.12 µM | TGI (SK-MEL-5 melanoma): 4.49 µM | GI50 (SK-OV-3 ovarian): 5.77 µM | TGI (SK-OV-3 ovarian): 70.5 µM | GI50 (SK-MEL-28 melanoma): 2.8 µM | TGI (SK-MEL-28 melanoma): 6.43 µM

CN1CCCN(C(c2ccccc2)c2ccc(Br)cc2)CC1 (stereo not given)
GI50 (TK-10 renal): 10.4 µM | TGI (TK-10 renal): 22.7 µM | GI50 (EKVX NSCLC): 4.94 µM | TGI (EKVX NSCLC): 19.6 µM | GI50 (IGROV1 ovarian): 8.83 µM | TGI (IGROV1 ovarian): 22.1 µM | GI50 (MALME-3M melanoma): 2.57 µM | TGI (MALME-3M melanoma): 11.8 µM | GI50 (UO-31 renal): 2.65 µM | TGI (UO-31 renal): 16 µM | GI50 (K-562 leukemia): 5.04 µM | TGI (K-562 leukemia): > 100 µM | GI50 (KM12 colon): 2.73 µM | TGI (KM12 colon): 7.09 µM | GI50 (SK-MEL-5 melanoma): 1.85 µM | TGI (SK-MEL-5 melanoma): 3.74 µM | GI50 (SK-OV-3 ovarian): 3.66 µM | TGI (SK-OV-3 ovarian): 14.5 µM | GI50 (SK-MEL-28 melanoma): 2.43 µM | TGI (SK-MEL-28 melanoma): 5.97 µM

O=C1C(N2C(=O)c3ccccc3C2=O)CN1C(COCc1ccccc1)c1ccc(OCc2ccccc2)cc1 (stereo not given)
TGI (TK-10 renal): > 100 µM | TGI (EKVX NSCLC): > 100 µM | TGI (IGROV1 ovarian): > 100 µM | TGI (MALME-3M melanoma): > 100 µM | TGI (UO-31 renal): > 100 µM | TGI (K-562 leukemia): > 100 µM | TGI (KM12 colon): > 100 µM | TGI (SK-MEL-5 melanoma): > 100 µM | TGI (SK-OV-3 ovarian): > 100 µM | TGI (SK-MEL-28 melanoma): > 100 µM
